How the values were obtained:
[1] = molecular target: T1, His-tagged recombinant human AXL cytoplasmic domain (Homo sapiens, UniProt P30530); test: AXL Enzyme Assay (LanthaScreen Eu Kinase Binding); conditions: averaged IC50; 60-minute incubation at 22° C.; TR-FRET
T1 construct: His-tagged recombinant human AXL cytoplasmic domain
T1 sequence (P30530 473-894 limits assumed): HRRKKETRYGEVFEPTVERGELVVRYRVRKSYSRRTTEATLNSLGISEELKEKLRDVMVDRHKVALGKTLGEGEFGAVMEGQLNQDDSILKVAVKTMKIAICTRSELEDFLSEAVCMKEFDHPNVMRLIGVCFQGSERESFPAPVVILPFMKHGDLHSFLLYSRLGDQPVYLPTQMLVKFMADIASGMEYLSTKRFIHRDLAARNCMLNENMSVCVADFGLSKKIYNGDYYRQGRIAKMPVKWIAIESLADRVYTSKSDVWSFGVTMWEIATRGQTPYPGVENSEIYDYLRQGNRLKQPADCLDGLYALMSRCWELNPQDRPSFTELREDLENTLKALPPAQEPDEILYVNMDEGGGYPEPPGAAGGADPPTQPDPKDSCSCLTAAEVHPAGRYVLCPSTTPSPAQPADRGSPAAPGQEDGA
Summary of the method: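 TR-FRET binding-displacement format: 20 nM Alexa Fluor Tracer 236, 2 nM biotin-anti-His and 2 nM Eu-streptavidin in 25 mM HEPES pH 7.4, 10 mM MgCl2, 0.01% Triton X-100, 2% DMSO. After 60 min at 22 °C, ratiometric percent of control was fitted to a 4-parameter logistic curve, IC50 taken at 50 POC.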

[2] = molecular target: T2, His-tagged recombinant human MER cytoplasmic domain (Homo sapiens, UniProt Q12866); test: MER Enzyme Assay (LanthaScreen Eu Kinase Binding); conditions: averaged IC50; MER 5 nM; 60-minute incubation at 22° C.; TR-FRET
T2 construct: His-tagged recombinant human MER cytoplasmic domain
T2 sequence (Q12866 527-999 limits assumed): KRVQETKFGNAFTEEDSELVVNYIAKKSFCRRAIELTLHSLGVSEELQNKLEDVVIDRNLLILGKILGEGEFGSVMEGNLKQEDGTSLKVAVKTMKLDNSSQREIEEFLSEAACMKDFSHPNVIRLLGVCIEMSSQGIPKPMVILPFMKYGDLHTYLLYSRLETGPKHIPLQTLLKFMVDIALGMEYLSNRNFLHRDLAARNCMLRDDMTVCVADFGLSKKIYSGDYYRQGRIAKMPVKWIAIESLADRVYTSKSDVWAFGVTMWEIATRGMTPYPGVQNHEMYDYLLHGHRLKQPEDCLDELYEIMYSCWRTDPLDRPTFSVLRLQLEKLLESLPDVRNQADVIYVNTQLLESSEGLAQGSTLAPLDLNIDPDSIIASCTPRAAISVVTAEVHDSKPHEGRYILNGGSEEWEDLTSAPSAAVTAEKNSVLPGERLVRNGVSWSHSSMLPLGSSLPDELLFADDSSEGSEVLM
Summary of the method: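 TR-FRET binding: 5 nM His-MER cytoplasmic domain with 20 nM Tracer 236, 2 nM biotin-anti-His and 2 nM Eu-streptavidin in pH 7.4 HEPES, 10 mM MgCl2, 2% DMSO, with threefold compound dilutions, 60 min at 22 °C. Percent of control was fit to a 4-parameter logistic, and IC50 was taken at 50 POC.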

[3] = molecular target: T3, MET (wt) GST-tagged recombinant human MET kinase domain (Homo sapiens, UniProt P08581); test: c-Met Enzyme Assay, wild type (LanthaScreen Eu Kinase Binding); conditions: averaged IC50; MET (wt) 10 nM; 60-minute incubation at 22° C.; read-out: SigChem WT IC50
T3 construct: GST-tagged recombinant human MET kinase domain; purchased Signal Chem
T3 sequence (P08581 1078-1345 limits assumed): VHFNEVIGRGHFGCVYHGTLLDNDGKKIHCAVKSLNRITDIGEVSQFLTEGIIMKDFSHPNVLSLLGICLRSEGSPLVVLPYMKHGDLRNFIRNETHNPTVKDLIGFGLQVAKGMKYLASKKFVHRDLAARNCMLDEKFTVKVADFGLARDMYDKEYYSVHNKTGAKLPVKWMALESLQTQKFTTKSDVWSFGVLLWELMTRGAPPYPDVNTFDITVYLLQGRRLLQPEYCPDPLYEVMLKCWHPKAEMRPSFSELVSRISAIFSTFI
Summary of the method: (§1)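 GST-tagged recombinant MET kinase domain was incubated with 50 nM Alexa-Fluor tracer 236, 2 nM Eu-anti-GST and compound in 25 mM HEPES pH 7.4, 10 mM MgCl2, 0.01% Triton X-100, 1 mM DTT, 2% DMSO for 60 min at 22 °C. TR-FRET ratio gave percent of control, fitted 4-parameter; IC50 at 50 POC.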

[4] = molecular target: T4, human MET kinase del Ex14 (Homo sapiens, UniProt P08581, DEL963-1009); test: c-Met Enzyme Assay, del Ex14 mutant; type: binding; conditions: averaged IC50; del Ex14 5 nM; 60-minute incubation at 22° C.; read-out: Del14 IC50
T4 construct: GST-tagged recombinant human MET kinase domain; purchased Signal Chem
T4 sequence (P08581 with tags, fused parts or gaps DEL963-1009 limits assumed): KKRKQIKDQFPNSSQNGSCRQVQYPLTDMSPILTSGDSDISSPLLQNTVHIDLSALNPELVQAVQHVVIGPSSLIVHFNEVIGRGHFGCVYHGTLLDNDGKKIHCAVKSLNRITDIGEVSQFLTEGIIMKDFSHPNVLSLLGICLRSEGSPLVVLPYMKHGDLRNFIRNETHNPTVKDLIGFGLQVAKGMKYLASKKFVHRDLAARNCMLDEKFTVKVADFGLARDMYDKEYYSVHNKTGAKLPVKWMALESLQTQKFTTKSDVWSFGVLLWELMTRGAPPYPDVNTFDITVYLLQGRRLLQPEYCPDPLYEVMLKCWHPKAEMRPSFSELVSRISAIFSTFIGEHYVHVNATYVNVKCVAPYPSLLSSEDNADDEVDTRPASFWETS
Summary of the method: as §1

human MET kinase D1228H = molecular target: T5, human MET kinase D1228H (Homo sapiens, UniProt P08581, D1228H); test: c-Met Enzyme Assay, D1228H mutant; type: binding; conditions: averaged IC50; D1228H 2 nM; 60-minute incubation at 22° C.; read-out: D1228 H IC50
T5 construct: GST-tagged recombinant human MET kinase domain; purchased Signal Chem
T5 sequence (P08581 1078-1345 D1228H): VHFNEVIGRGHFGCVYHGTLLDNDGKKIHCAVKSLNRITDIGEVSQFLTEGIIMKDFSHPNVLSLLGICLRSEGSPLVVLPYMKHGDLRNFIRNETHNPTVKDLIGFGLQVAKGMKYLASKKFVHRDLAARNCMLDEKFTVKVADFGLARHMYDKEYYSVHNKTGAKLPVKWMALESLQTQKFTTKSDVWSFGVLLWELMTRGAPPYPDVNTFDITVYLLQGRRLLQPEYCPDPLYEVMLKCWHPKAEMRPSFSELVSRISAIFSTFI
Summary of the method: as §1

human MET kinase Y1230C = molecular target: T6, human MET kinase Y1230C (Homo sapiens, UniProt P08581, Y1230C); test: c-Met Enzyme Assay, Y1230C mutant; type: binding; conditions: averaged IC50; Y1230C 2 nM; 60-minute incubation at 22° C.; read-out: Y1230 C IC50
T6 construct: GST-tagged recombinant human MET kinase domain; purchased Signal Chem
T6 sequence (P08581 1078-1345 Y1230C): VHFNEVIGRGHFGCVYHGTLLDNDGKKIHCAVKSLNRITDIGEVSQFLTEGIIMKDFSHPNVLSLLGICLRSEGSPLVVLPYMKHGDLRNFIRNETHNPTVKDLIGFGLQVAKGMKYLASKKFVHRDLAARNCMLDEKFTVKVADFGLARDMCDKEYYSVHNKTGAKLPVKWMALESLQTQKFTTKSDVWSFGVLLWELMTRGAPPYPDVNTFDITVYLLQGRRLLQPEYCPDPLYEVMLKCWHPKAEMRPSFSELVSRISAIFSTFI
Summary of the method: as §1

human MET kinase Y1230S = molecular target: T7, human MET kinase Y1230S (Homo sapiens, UniProt P08581, Y1230S); test: c-Met Enzyme Assay, Y1230S mutant; type: binding; conditions: averaged IC50; Y1230S 8 nM; 60-minute incubation at 22° C.; read-out: Y1230 S IC50
T7 construct: GST-tagged recombinant human MET kinase domain; purchased Signal Chem
T7 sequence (P08581 1078-1345 Y1230S): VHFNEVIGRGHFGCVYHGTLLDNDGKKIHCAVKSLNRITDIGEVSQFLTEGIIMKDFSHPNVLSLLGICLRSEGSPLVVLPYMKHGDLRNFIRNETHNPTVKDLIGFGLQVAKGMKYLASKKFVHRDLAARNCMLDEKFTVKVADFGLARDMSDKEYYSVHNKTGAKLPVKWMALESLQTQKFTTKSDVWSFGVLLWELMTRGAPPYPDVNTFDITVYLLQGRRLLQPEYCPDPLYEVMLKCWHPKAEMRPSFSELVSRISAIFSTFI
Summary of the method: as §1

With CCCn1cc(C(=O)Nc2ccc(Oc3ccnc4cc(OC)c(OC)cc34)cn2)c(=O)c(-c2ccc(F)cc2)c1 [Example 10, N-(5((6,7-dimethoxyquinolin-4-yl)oxy)pyridin-2-yl)-5-(4-fluorophenyl)-4-oxo-1-propyl-1,4-dihydropyridine-3-carboxamide] the IC50 [1] was 4 nM, the IC50 [2] was 8 nM and the IC50 [3] was 3.6 nM. It also gave an IC50 [4] of 3.5 nM, an IC50 (human MET kinase D1228H) of 3.7 nM and an IC50 (human MET kinase Y1230C) of 3.1 nM. It also gave an IC50 (human MET kinase Y1230S) of 2.8 nM.

For COc1cc2nccc(Oc3ccc(NC(=O)c4cn(CCC(C)C)cc(-c5ccc(F)cc5F)c4=O)nc3)c2cc1OC [Example 36, 5-(2,4-difluorophenyl)-N-(5-((6,7-dimethoxyquinolin-4yl)oxy)pyridin-2-yl)-1-isopentyl-4-oxo-1,4-dihydropyridine-3-carboxamide], the IC50 [1] was 3 nM, the IC50 [2] was 8 nM and the IC50 [3] was 2.4 nM. The IC50 [4] was 2.4 nM, the IC50 (human MET kinase D1228H) was 1.8 nM and the IC50 (human MET kinase Y1230C) was 2.8 nM. For the same compound, the IC50 (human MET kinase Y1230S) was 2.3 nM.

COc1cc2c(Oc3ccc(NC(=O)c4cn(C(C)C)cc(-c5ccc(F)cc5)c4=O)nc3)ccnc2cc1OCCCN1CCOCC1 [Example 56, 5-(4-fluorophenyl)-1-isopropyl-N-(5-((6-methoxy-7-(3-morpholinopropoxy)quinolin-4-yl)oxy)pyridin-2-yl)-4-oxo-1,4-dihydropyridine-3-carboxamide] gave an IC50 [1] of 3 nM, an IC50 [2] of 6 nM and an IC50 [3] of 3.9 nM. For the same compound, the IC50 [4] was 4.5 nM, the IC50 (human MET kinase D1228H) was 1.9 nM and the IC50 (human MET kinase Y1230C) was 3.2 nM. For the same compound, the IC50 (human MET kinase Y1230S) was 3 nM.

Compound COc1cc2nccc(Oc3ccc(NC(=O)c4cn(C(C)C)cc(-c5ccc(F)c(Cl)c5)c4=O)nc3)c2cc1OC [Example 21, 5-(3-chloro-4-fluorophenyl)-N-(5-((6,7-dimethoxyquinolin-4-yl)oxy)pyridin-2-yl)-1-isopropyl-4-oxo-1,4-dihydropyridine-3-carboxamide] has an IC50 [1] of 10 nM, an IC50 [2] of 10 nM and an IC50 [3] of 13.5 nM. For the same compound, the IC50 [4] was 13.6 nM, the IC50 (human MET kinase D1228H) was 18.7 nM and the IC50 (human MET kinase Y1230C) was 20.4 nM. It also gave an IC50 (human MET kinase Y1230S) of 29.2 nM.

COc1cc2nccc(Oc3ccc(NC(=O)c4cn(C(C)C)cc(-c5ccc(F)cc5)c4=O)cn3)c2cc1OC [Example 58, N-(6-((6,7-dimethoxyquinolin-4-yl)oxy)pyridin-3-yl)-5-(4-fluorophenyl)-1-isopropyl-4-oxo-1,4-dihydropyridine-3-carboxamide] showed an IC50 [1] of 1 nM, an IC50 [2] of 2 nM and an IC50 [3] of 2.7 nM. For the same compound, the IC50 [4] was 3.1 nM, the IC50 (human MET kinase D1228H) was 3.5 nM and the IC50 (human MET kinase Y1230C) was 2.2 nM. The IC50 (human MET kinase Y1230S) was 2.7 nM.

Work on COc1ccc2nccc(Oc3ccc(NC(=O)c4cn(C(C)C)c(C)c(-c5ccc(F)cc5)c4=O)nc3)c2c1 [Example 33, 5-(4-fluorophenyl)-1-isopropyl-N-(5-((6-methoxyquinolin-4-yl)oxy)pyridin-2-yl)-6-methyl-4-oxo-1,4-dihydropyridine-3-carboxamide] yielded an IC50 [1] of 1 nM, an IC50 [2] of 5 nM and an IC50 [3] of 3.9 nM. The IC50 [4] was 4.9 nM, the IC50 (human MET kinase D1228H) was 5.2 nM and the IC50 (human MET kinase Y1230C) was 2.7 nM. The IC50 (human MET kinase Y1230S) was 5 nM.

COc1cc2nccc(Oc3ccc(NC(=O)c4cn(C(C)C)cc(-c5ccc(Cl)cc5)c4=O)nc3)c2cc1OC [Example 5, 5-(4-chlorophenyl)-N-(5-((6,7-dimethoxyquinolin-4-yl)oxy)pyridin-2-yl)-1-isopropyl-4-oxo-1,4-dihydropyridine-3-carboxamide] gave an IC50 [1] of 2 nM, an IC50 [2] of 4 nM and an IC50 [3] of 6.4 nM. For the same compound, the IC50 [4] was 6.4 nM, the IC50 (human MET kinase D1228H) was 9.6 nM and the IC50 (human MET kinase Y1230C) was 8.1 nM. For the same compound, the IC50 (human MET kinase Y1230S) was 5.4 nM.

Compound COc1cc2nccc(Oc3ccc(NC(=O)c4cn(CC(C)(C)O)cc(-c5ccc(F)cc5)c4=O)nc3)c2cc1OC [Example 9, N-(5-((6,7-dimethoxyquinolin-4-yl)oxy)pyridin-2-yl)-5-(4-fluorophenyl)-1-(2-hydroxy-2-methylpropyl)-4-oxo-1,4-dihydropyridine-3-carboxamide] has an IC50 [1] of 2 nM, an IC50 [2] of 3 nM and an IC50 [3] of 2.9 nM. The IC50 [4] was 5.6 nM, the IC50 (human MET kinase D1228H) was 10 nM and the IC50 (human MET kinase Y1230C) was 6.2 nM. For the same compound, the IC50 (human MET kinase Y1230S) was 9.1 nM.

Work on COc1cc2nccc(Oc3ccc(NC(=O)c4cn(C(C)C)cc(-c5ccc(F)c(F)c5)c4=O)nc3)c2cc1OC [Example 6] yielded an IC50 [1] of 2 nM, an IC50 [2] of 5 nM and an IC50 [3] of 8.8 nM. The IC50 [4] was 7.8 nM, the IC50 (human MET kinase D1228H) was 12.1 nM and the IC50 (human MET kinase Y1230C) was 12.4 nM. It also gave an IC50 (human MET kinase Y1230S) of 11.9 nM.

COc1cc2nccc(Oc3ccc(NC(=O)c4cn(CC(=O)N(C)C)cc(-c5ccc(F)cc5)c4=O)nc3)c2cc1OC [Example 23, N-(5-((6,7-dimethoxyquinolin-4yl)oxy)pyridin-2-yl)-1-(2-(dimethylamino)-2-oxoethyl)-5-(4-fluorophenyl)-4-oxo-1,4-dihydropyridine-3-carboxamide] showed an IC50 [1] of 1 nM, an IC50 [2] of 3 nM and an IC50 [3] of 2.8 nM. For the same compound, the IC50 [4] was 2.9 nM, the IC50 (human MET kinase D1228H) was 11.5 nM and the IC50 (human MET kinase Y1230C) was 14.5 nM. For the same compound, the IC50 (human MET kinase Y1230S) was 3.8 nM.
